Measurements taken from patent publication US20250171435A1, “Carbon Linked BCL Inhibitors and Senolytic Compounds and Uses Thereof” (Rubedo Life Sciences, Inc., priority 2023, published 2025).
pIC50: −log10 of the molar value. Read-outs that look alike come from different tables or passages of the source.

How the values were obtained:
[1] = test system: senescent IMR90 cells; experiment: Senescence assay: viability of senescent IMR90 cells (CellTiter-Glo or XTT); assay type: cell-based; conditions: Homo sapiens, IMR-90; chemotherapy-induced senescent IMR90 cells; compounds incubated 24-72 hours; viability relative to untreated control; read-out: IMR90_SEN IC50 (Absolute IC50 average)
Protocol: (§1) Cells were maintained in DMEM media (high glucose, 4 mM L-glutamine, no sodium pyruvate) supplemented with 10% fetal bovine serum in a humidified incubator at 37° C. with 5% carbon dioxide. Senescence was induced via treatment with a sublethal concentration of chemotherapy (bleomycin, gemcitabine, doxorubicin, 5-fluorouridine, mitomycin C), followed by a rest period without chemotherapy similarly to what is reported by others in the field (e.g., Aoshiba et al., 2003 Eur Respir J 22:436-443). Senescence was qualified by low EdU (5-ethynyl-2′-deoxyuridine) incorporation and high SA-β-Gal (senescence-associated beta-galactosidase) staining compared to proliferating untreated cells. Senescent cells were plated into 96-well plates at a density of 5-15,000 cells/well. The next day, compounds were added in duplicate across ten different concentrations spanning roughly four Log 10 units. Cells were incubated with the compounds for 24-72 hours, at which point viability was quantified using CellTiter-Glo (Promega) or XTT (R&D Systems). The viability for treated cells was determined relative to untreated control cells. The log of the compound concentration vs. normalized mean viability was fit to a four parameters Hill function with variable slope. The bottom was constrained to be greater than zero. The X mean value for Y=50 was interpolated to determine the absolute IC50. The results in Table 1 indicate that many of the compounds are active in cells and can induce a dose dependent decrease in the viability of senescent A549 and IMR90 cells.

[2] = test system: senescent A549 cells; experiment: Senescence assay: viability of senescent A549 cells (CellTiter-Glo or XTT); assay type: cell-based; conditions: chemotherapy-induced senescent A549 cells, compounds incubated 24-72 hours, viability relative to untreated control, read-out: A549_SEN IC50 (Absolute IC50 average)
Protocol: as §1

Row | pIC50 ([2]; Homo sapiens) | SMILES | pIC50 [1] | pIC50 [2]
1 | 6.00 to 7.00 | Cc1cc(C(=O)c2nc(C(=O)O)c(CCCOc3ccc(C#CCN(C)C)cc3F)s2)nnc1Nc1nc2ccccc2s1 [Compound 3, 2-(6-(benzo[d]thiazol-2-ylamino)-5-methylpyridazine-3-carbonyl)-5-(3-(4-(3-(dimethylamino)prop-1-yn-1-yl)-2-fluorophenoxy)propyl) thiazole-4-carboxylic acid] | 5.00 to 6.00 | 
2 | 7.00 to 8.00 | C#Cc1ccc(CNC(=O)[C@@H]2C[C@H](O)CN2C(=O)[C@@H](NC(=O)CCCCCS(=O)(=O)NC(=O)c2nc(C(=O)c3cc(C)c(Nc4nc5ccccc5s4)nn3)ccc2-c2cnn(CC34CC5(C)CC(C)(C3)CC(OCCN3CCOCC3)(C5)C4)c2C)C(C)(C)C)cc1 [Compound 6, (2S,4R)-1-[(2S)-2-[6-({6-[6-(1,3-benzothiazol-2-ylamino)-5-methylpyridazine-3-carbonyl]-3-(1-{[(1S,3R,5S,7R)-3,5-dimethyl-7-[2-(morpholin-4-yl)ethoxy]adamantan-1-yl]methyl}-5-methylpyrazol-4-yl)pyridin-2-yl}formamidosulfonyl)hexanamido]-3,3-dimethylbutanoyl]-N-[(4-ethynylphenyl)methyl]-4-hydroxypyrrolidine-2-carboxamide] |  | 
3 | 7.00 to 8.00 | Cc1cc(C(=O)c2ccc(-c3cnn(CC45CC6(C)CC(C)(C4)CC(OCCN4CCOCC4)(C6)C5)c3C)c(C(=O)O)n2)nnc1Nc1nc2ccccc2s1 [Compound 2, 6-(6-(benzo[d]thiazol-2-ylamino)-5-methylpyridazine-3-carbonyl)-3-(1-(((1r,3R,5S,7s)-3,5-dimethyl-7-(2-morpholinoethoxy)adamantan-1-yl)methyl)-5-methyl-1H-pyrazol-4-yl)picolinic acid] | 7.00 to 8.00 | 
4 |  | Cc1cc(C(=O)c2ccc(-c3cnn(CC45CC6(OCCN7CCOCC7)C[C@](C)(C4)C[C@](C)(C5)C6)c3C)c(C(=O)NS(=O)(=O)CCCCCC(=O)N[C@H](C(=O)N3C[C@@H](O)C[C@H]3C(=O)N[C@@H](C)c3ccc(-c4scnc4C)cc3)C(C)(C)C)n2)nnc1Nc1nc2ccccc2s1 [Compound 5, (2S,4S)-1-[(2S)-2-[6-({6-[6-(1,3-benzothiazol-2-ylamino)-5-methylpyridazine-3-carbonyl]-3-(1-{[(1S,3R,5S,7R)-3,5-dimethyl-7-[2-(morpholin-4-yl)ethoxy]adamantan-1-yl]methyl}-5-methylpyrazol-4-yl)pyridin-2-yl}formamidosulfonyl)hexanamido]-3,3-dimethylbutanoyl]-4-hydroxy-N-[(1S)-1-[4-(4-methyl-1,3-thiazol-5-yl)phenyl]ethyl]pyrrolidine-2-carboxamide] |  | 6.00 to 7.00
5 | 5.00 to 6.00 | Cc1cc(C(=O)c2ccc(-c3cnn(CC45CC6(C)CC(C)(C4)CC(OCCO)(C6)C5)c3C)c(C(=O)O)n2)nnc1Nc1nc2ccccc2s1 [Compound 1, 6-(6-(benzo[d]thiazol-2-ylamino)-5-methylpyridazine-3-carbonyl)-3-(1-(((1r,3s,5R,7S)-3-(2-hydroxyethoxy)-5,7-dimethyladamantan-1-yl)methyl)-5-methyl-1H-pyrazol-4-yl)picolinic acid] | 6.00 to 7.00 | 
6 | 6.00 to 7.00 | Cc1cc(C(=O)c2ccc(-c3cnn(CC45CC6(C)CC(C)(C4)CC(OCCN4CCOCC4)(C6)C5)c3C)c(C(=O)NS(=O)(=O)c3ccc(N4CC(C(=O)N[C@H](C(=O)N5C[C@H](O)C[C@H]5C(=O)N[C@H](C)c5ccc(-c6scnc6C)cc5)C(C)(C)C)C4)cc3)n2)nnc1Nc1nc2ccccc2s1 [Compound 7, 6-[6-(1,3-benzothiazol-2-ylamino)-5-methylpyridazine-3-carbonyl]-3-(1-{[(1S,3R,5S,7R)-3,5-dimethyl-7-[2-(morpholin-4-yl)ethoxy]adamantan-1-yl]methyl}-5-methylpyrazol-4-yl)-N-[4-(3-{[(2S)-1-[(2S,4R)-4-hydroxy-2-{[(1S)-1-[4-(4-methyl-1,3-thiazol-5-yl)phenyl]ethyl]carbamoyl}pyrrolidin-1-yl]-3,3-dimethyl-1-oxobutan-2-yl]carbamoyl}azetidin-1-yl)benzenesulfonyl]pyridine-2-carboxamide] |  | 
7 |  | Cc1cc(C(=O)c2ccc(-c3cnn(CC45CC6(OCCN7CCOCC7)C[C@](C)(C4)C[C@](C)(C5)C6)c3C)c(C(=O)NS(=O)(=O)CCCCCC(=O)N[C@H](C(=O)N3C[C@H](O)C[C@H]3C(=O)N[C@@H](C)c3ccc(-c4scnc4C)cc3)C(C)(C)C)n2)nnc1Nc1nc2ccccc2s1 [Compound 4, (2S,4R)-1-[(2S)-2-[6-({6-[6-(1,3-benzothiazol-2-ylamino)-5-methylpyridazine-3-carbonyl]-3-(1-{[(1S,3R,5S,7R)-3,5-dimethyl-7-[2-(morpholin-4-yl)ethoxy]adamantan-1-yl]methyl}-5-methylpyrazol-4-yl)pyridin-2-yl}formamidosulfonyl)hexanamido]-3,3-dimethylbutanoyl]-4-hydroxy-N-[(1S)-1-[4-(4-methyl-1,3-thiazol-5-yl)phenyl]ethyl]pyrrolidine-2-carboxamide] |  | 6.00 to 7.00
